Here are results for one compound from US20220017478A1, “2-BENZOYLAMINOBENZAMIDE DERIVATIVES AS BCL-3 INHIBITORS” (University College Cardiff Consultants Limited, priority 2013, published 2022).

Where two headings read alike, the source gives them in different places.

Data set [1] has as its system MDA-MB-231 cells. The data set can be described thus: Cell Titre Blue viability assay, MDA-MB-231. As to conditions: Homo sapiens, MDA-MB-231, 24 h, read-out: IC50 cell viability, extrapolated from the dose-response curve.
Procedure: (§1) The viability of cells at experimental endpoints for particular assays was determined using the Cell Titre Blue reagent (Promega, Southampton, UK). This reagent measures the cellular metabolic activity using resazurin as an indicator dye. Viable cells, therefore metabolically active, will reduce resazurin into highly fluorescent resofurin. The resulting fluorescence levels are measured and indicate cell viability.
(§2) Cells were plated at low confluency into 96 well plates in 100 μl of complete growth media in triplicates and were incubated at 37° C. in 5% CO2 for the desired test exposure period. For each 100 μl of media in 96 well plates, 20 μl Cell Titre Blue reagent was added followed by incubation for an hour at 37° C. in 5% CO2. Fluorescence was then measured by setting excitation/emission wavelengths to 560/590 nm on a Flurostar Optima plate reader (BMG tabtech, Bucks, UK).
(§3) Cell toxicity was evaluated using the Cell Titre Blue viability assay over a range of molarities for 24 hrs.
Selected compounds were dissolved in DMSO and diluted to a highest concentration of 10 μM (0.1% DMSO). In all assays, a DMSO control was always used. Selected compounds were tested for cell toxicity in HEK-293 and MDA-MB-231 cells before being used in cell-based assays. Cell toxicity was evaluated using the Cell Titre Blue viability assay over a range of molarities for 24 hrs
Data set [2] relates to NF-κB activity. The data set can be described thus: NF-κB luciferase reporter assay in HEK-293 p52 overexpressing cells. The format is cell-based. As to conditions: Homo sapiens, HEK293. As to the method: For NF-κB luciferase assays, cells were seeded into clear bottom black 96-well plates (Corning Inc., Lowell, US) in antibiotic free culture media in appropriate density. After 24 hrs, cells were transfected with 10 ng of 3×κB luciferase plasmid and 10 ng of pcDNA3.1-Lacl plasmid per well. Empty pcDNA3.1 plasmid was also included to normalize the total weight of DNA transfected to 100 ng. For positive and negative controls respectively, 10 ng of pGL3control or pGL3basic were transfected in place of 3×KB luciferase plasmid. Transfection was carried out using Lipofectamine LTX reagents (Invitrogen, Paisley, UK).
After 48 hrs post-transfection with luciferase reporter plasmid, the media was aspirated and cells were lyzed using 50 μl/well of Glo-lysis buffer (Promega, Southampton, UK). The plate was left on a rocker for 20 min to facilitate complete cell lysis. […] Subsequently, 30 μl/well of Bright-Glo luciferase substrate (Promega, Southampton, UK) was added to the original plate and asses immediately for luminescence activity. The luminescence produced from either reaction was read using a Flurostar Optima plate reader (BMG tabtech, Bucks, UK).
The effect of Compound 1a on NF-κB activity was determined by NF-κB luciferase assay in MDA-MB-231 and HEK-293 cells overexpressing Bcl-3 and HEK-293 cells overexpressing p52. […]

In data set [3] the test system is SKBR3 cells. The data set is described as follows: Cell Titre Blue viability assay, SKBR3. The format is cell-based, human. Particulars: Homo sapiens, SK-BR-3; SKBR3, 24 hrs, extrapolated with GraphPad; read-out: IC50 cell viability, extrapolated from the dose-response curve.
Procedure: as §1, §2
(§4) To compare the toxicity in tumorigenic as well as in non-tumorigenic breast cancer cells, we selected MCF-10A as a non-tumorigenic human breast cancer cell line and MDA-MB-231 and SKBR3 as cell models of tumorigenic human breast cancer cell line.
as §3
Data set [4] is described as follows: Cell Titre Blue viability assay, SKBR3. Particulars: human, SKBR3 cells; SKBR3, 1 mM, 24 hrs; read-out: cell viability compared to DMSO control (100%). Format: cell-based, human.
Procedure: as §1, §2, §4, §3
The nature of data set [5]: Cell Titre Blue viability assay, MCF-10A. Format: cell-based, human. Particulars: human, MCF-10A cells, 1 mM, read-out: cell viability compared to DMSO control (100%).
Procedure: as §1, §2, §4, §3
Data set [6] concerns MCF-10A cells. The data set can be described thus: Cell Titre Blue viability assay, MCF-10A. Particulars: Homo sapiens, 24 hrs, extrapolated with GraphPad, read-out: IC50 cell viability, extrapolated from the dose-response curve. Format: cell-based, human.
Procedure: as §1, §2, §4, §3
Data set [7] in a line: Solubility in commonly used solvents and PBS. The format is physicochemical. On the procedure:
We established that the solubility of Compound 1a in most commonly used solvents is very low (Table 2) which represents an issue for biological evaluation. Therefore a hydrochloric salt of Compound 1a was synthesised and the solubility was analyzed. The obtained salt had improved solubility in water and methanol (Table 2), however it was not soluble (<0.1 g/100 ml) in Phosphate Buffered Saline (PBS). PBS is a water-based salt solution containing sodium chloride, sodium phosphate, potassium chloride and potassium phosphate, while the buffer's phosphate groups help to maintain a constant pH. PBS is non-toxic and is commonly used as an isotonic buffered solution for cell-based assays and animal studies.

As to `O=C(Nc1ccccc1C(=O)NCCN1CCOCC1)c1ccccc1F` [Compound 1a, 2-[(2-fluorobenzoyl)amino]-N-(2-morpholin-4-ylethyl)benzamide], the IC50 in data set [1] is 2700 µM; in data set [2], 0.211 µM; in data set [3], 1370 µM; in data set [6] it was 14900 µM. For the same compound, the viability at 24 h, 1 mM in data set [4] is 57%. Moreover, the viability at 24 h, 1000 µM in data set [5] was found to be 96%. For the same compound, the Solubility in data set [7] (DMSO) amounted to 3.71 g/100 ml; in data set [7] (Dichloromethane), 2.91 g/100 ml; in data set [7] (Diethyl ether), 0.09 g/100 ml; in data set [7] (Ethanol) it was 0.09 g/100 ml; in data set [7] (Ethyl acetate) it was 0.34 g/100 ml; in data set [7] (Methanol), 0.20 g/100 ml. Further, in data set [7] (water, read-out: Solubility), the Solubility was below 100 µg/mL.
